These results are taken from article PMC8342319, “Predicting blood-to-plasma concentration ratios of drugs from chemical structures and volumes of distribution in humans” (Molecular Diversity, 2021).

Where two headings read alike, the source gives them in different places.

For data set [1] the following is noted: cited from earlier work.
For data set [2], the system named is plasma protein. In words: Measurement of PPB by equilibrium dialysis in pooled human plasma (free fraction). The following applies: for fp_Human: footnote b: fu is our experimental data; for fraction unbound at 5 h, 5 µM: human.
Procedure: (§1) Pooled human plasma was obtained from heparinized blood from nine to ten healthy volunteers not medicated for at least seven days. The human blood collection and PPB experimental protocols were approved by the Ethical Review Committee of Japan Tobacco Inc, Central Pharmaceutical Research Institute. Informed consent was obtained from all subjects, and the PPB experiments were conducted in accordance with the Ethical Guidelines for Medical and Health Research Involving Human Subjects. Binding of compounds to plasma protein was evaluated by equilibrium dialysis utilizing a 96-well equilibrium dialysis unit and HTD96b dialysis membrane strips with a molecular cutoff of 12–14 kDa (HTDialysis, Gales Ferry, CT, USA). Plasma containing the compounds (final concentration of 5 µM) and buffer (Dulbecco’s phosphate-buffered saline; Thermo Fisher Scientific, Waltham, MA) were added into the donor and receiver cells, respectively. Following dialysis for 5 h at 37 °C, the concentrations of the compounds in the plasma and buffer were determined by liquid chromatography–tandem mass spectrometry (LC–MS/MS) (Acquity™ Ultra Performance LC I-Class and Xevo TQ-S; Waters, Milford, MA). The percentage of free fraction (fu) was calculated according to the following equation [17]:1 Freefraction(fu,%)=Concentrationofbuffer/Concentrationofplasma×100
For data set [3] the following is noted: human, cited from earlier work.
The conditions of data set [4]: human.
Data set [5] can be described thus: Measurement of Rb (blood-to-plasma concentration ratio) in spiked human blood, LC-MS/MS. The data set is classed as in vitro ADME. Conditions: footnote a: Rb is our experimental data; for blood plasma ratio at 30 min, 5 µM: read-out: Rb_Human (blood-to-plasma concentration ratio). How it is done:
Heparinized blood was collected from three to seven healthy volunteers not medicated for at least seven days. […] The blood was spiked with the compounds (final concentration of 5 µM) and incubated at 37 °C for 30 min. Following incubation, the samples were centrifuged at 5000 rpm for 5 min to obtain plasma. Subsequently, the concentrations of the compounds in the plasma were determined by LC–MS/MS using the same method as described for the measurement of PPB. Rb was calculated according to Eq. (2).

For data set [6] the following is noted: human; median if multiple values were reported; ref numbers in Table S1; cited from earlier work.
Data set [7] deals with plasma protein. Nature of the data set: in vitro. The following applies: human.
Procedure: as §1
Where [8] appears, read: human, intravenous, median if multiple values were reported, ref numbers in Table S1.
Where [9] appears, read: intravenous, median if multiple values were reported, ref numbers in Table S1.

The term fraction unbound denotes free concentration divided by total concentration. The low end stands for extensive binding, the high end for weak binding. With `C[C@H]1NCc2cc(-c3ccc4c(=O)c(C(=O)O)cn(C5CC5)c4c3OC(F)F)ccc21` [Garenoxacin], the “in vivo CL_(L/hr/kg)_Human” value in data set [1] (setting [8]) is 0.074 L/h/kg. The fp_Human in the data set with plasma protein [2] (human plasma free fraction) turned out to be 0.236. In the data set with plasma protein [2] (pooled human plasma), the fraction unbound at 5 h, 5 µM was 0.236. In data set [3] (setting [9]), the “in vivo Vd_(L/kg)_Human” value is given as 1.000 L/kg. Besides, the “in vivo MRT_(hr)_Human” value in data set [4] is 13.550 h. Besides, the blood plasma ratio at 30 min, 5 µM in data set [5] (heparinized human whole blood) is 0.72.

For the compound `CO/N=C(\C(=O)N[C@@H]1C(=O)N2C(C(=O)O)=C(CSc3nc(C)c(CC(=O)O)s3)CS[C@H]12)c1csc(N)n1` [Cefodizime], the “in vivo CL_(L/hr/kg)_Human” value in data set [1] (setting [8]) was 0.037 L/h/kg. Besides, the fp_Human with plasma protein [2] (human plasma free fraction) is 0.097. Further, the fraction unbound at 5 h, 5 µM in the data set on plasma protein [2] (pooled human plasma) is 0.097. Moreover, in data set [3] (setting [9]), the “in vivo Vd_(L/kg)_Human” value is 0.054 L/kg. In addition, in data set [4], the “in vivo MRT_(hr)_Human” value came to 1.475 h. Besides, the blood plasma ratio at 30 min, 5 µM in data set [5] (heparinized human whole blood) came to 0.57.

As to `CC(C)NCC(O)COc1cccc2ccccc12` (centres unmarked) [Propranolol], the “in vivo CL_(L/hr/kg)_Human” value in data set [1] (human, intravenous, median if multiple values reported, Reference of Table S1) was 0.720 L/h/kg. In the data set with plasma protein [2] (free fraction in human plasma), the fp_Human is recorded as 0.098. The “in vivo Vd_(L/kg)_Human” value in data set [3] (intravenous, median if multiple values reported, Reference of Table S1) was 3.350 L/kg. Moreover, in data set [4], the “in vivo MRT_(hr)_Human” value was found to be 4.653 h. In addition, in data set [5] (blood-to-plasma concentration ratio), the Rb_Human amounted to 1.08.

`Cc1cc(O)c(C(=O)N[C@@H](C(=O)N[C@@H]2C(=O)N3C(C(=O)O)=C(CSc4nnnn4C)CS[C@H]23)c2ccc(O)cc2)cn1` [Cefpiramide]: in data set [1] (setting [8]), the “in vivo CL_(L/hr/kg)_Human” value is 0.029 L/h/kg. In the data set on plasma protein [2] (human plasma free fraction), the fp_Human is 0.039. The fraction unbound at 5 h, 5 µM in the data set with plasma protein [2] (pooled human plasma) was 0.039. For the same compound, the “in vivo Vd_(L/kg)_Human” value in data set [3] (setting [9]) is listed as 0.130 L/kg. Besides, the “in vivo MRT_(hr)_Human” value in data set [4] was determined as 4.514 h. Moreover, in data set [5] (heparinized human whole blood), the blood plasma ratio at 30 min, 5 µM was 0.53.

Take `COc1ccc2c(c1)c(CC(=O)O)c(C)n2C(=O)c1ccc(Cl)cc1` [Indomethacin]: the “in vivo CL_(L/hr/kg)_Human” value in data set [1] (setting [8]) is 0.095 L/h/kg. For the same compound, in the data set on plasma protein [2] (human plasma free fraction), the fp_Human is on record as 0.00361. For the same compound, the free fraction (fraction unbound) at 5 h, 5 µM with plasma protein [2] (pooled human plasma) was 0.00361. Moreover, the “in vivo Vd_(L/kg)_Human” value in data set [3] (setting [9]) is listed as 0.595 L/kg. Also, in data set [4], the “in vivo MRT_(hr)_Human” value turned out to be 4.958 h. Moreover, in data set [5] (heparinized human whole blood), the blood plasma ratio at 30 min, 5 µM turned out to be 0.59.

For `O=P1(N(CCCl)CCCl)NCCCO1` (centres unmarked) [Cyclophosphamide], the “in vivo CL_(L/hr/kg)_Human” value in data set [1] (in vivo, iv) is 0.078 L/h/kg. For the same compound, the fp_Human with plasma protein [2] (human plasma free fraction) is listed as 0.928. This compound also showed a fraction unbound at 5 h, 5 µM with plasma protein [2] (plasma) of 0.928. In data set [3] (in vivo, iv), the “in vivo Vd_(L/kg)_Human” value is recorded as 0.715 L/kg. Also, the “in vivo MRT_(hr)_Human” value in data set [4] is 10.833 h. Moreover, the blood plasma ratio at 30 min, 5 µM in data set [5] (plasma) is 0.92.

For the compound `CO/N=C(\C(=O)N[C@@H]1C(=O)N2C(C(=O)O)=CCS[C@H]12)c1csc(N)n1` [Ceftizoxime], the “in vivo CL_(L/hr/kg)_Human” value in data set [1] (setting [8]) was 0.126 L/h/kg. The compound further came in with a fp_Human with plasma protein [2] (human plasma free fraction) of 0.995. This compound returned a fraction unbound at 5 h, 5 µM with plasma protein [2] (pooled human plasma) of 0.995. The “in vivo Vd_(L/kg)_Human” value in data set [3] (setting [9]) is 0.215 L/kg. The “in vivo MRT_(hr)_Human” value in data set [4] amounted to 1.706 h. Also, the blood plasma ratio at 30 min, 5 µM in data set [5] (heparinized human whole blood) was determined as 0.54.

As to `NCC1(CC(=O)O)CCCCC1` [Gabapentin], in data set [6], the “Rb_Human (blood-to-plasma concentration ratio)” value is on record as 1.10. In data set [1] (setting [8]), the “in vivo CL_(L/hr/kg)_Human” value is 0.102 L/h/kg. In the data set with plasma protein [2] (human plasma free fraction), this compound yielded a fp_Human of 1.000. Further, the “in vivo Vd_(L/kg)_Human” value in data set [3] (in vivo, iv) is listed as 0.765 L/kg. Also, the fraction unbound with plasma protein [7] was found to be 1. In addition, the “in vivo MRT_(hr)_Human” value in data set [4] turned out to be 7.500 h.

Consider `NC(N)=Nc1nc(CSCCC(N)=NS(N)(=O)=O)cs1` [Famotidine], for which the “in vivo CL_(L/hr/kg)_Human” value in data set [1] (setting [8]) is 0.396 L/h/kg. Also, in the data set with plasma protein [2] (human plasma free fraction), the fp_Human is 1.000. This compound came in with a fraction unbound at 5 h, 5 µM with plasma protein [2] (pooled human plasma) of 1. Also, the “in vivo Vd_(L/kg)_Human” value in data set [3] (setting [9]) was 1.200 L/kg. Moreover, the “in vivo MRT_(hr)_Human” value in data set [4] was 3.030 h. For the same compound, in data set [5] (heparinized human whole blood), the blood plasma ratio at 30 min, 5 µM came to 0.74.

For the compound `CN(C)CCc1c[nH]c2ccc(CS(=O)(=O)N3CCCC3)cc12` [Almotriptan], the “in vivo CL_(L/hr/kg)_Human” value in data set [1] (setting [8]) is 0.534 L/h/kg. In addition, in the data set with plasma protein [2] (human plasma free fraction), the fp_Human is on record as 0.625. In the data set with plasma protein [2] (pooled human plasma), the fraction unbound at 5 h, 5 µM turned out to be 0.625. Moreover, the “in vivo Vd_(L/kg)_Human” value in data set [3] (setting [9]) is on record as 2.200 L/kg. For the same compound, the “in vivo MRT_(hr)_Human” value in data set [4] is 4.120 h. For the same compound, in data set [5] (heparinized human whole blood), the blood plasma ratio at 30 min, 5 µM came out at 1.15.

Consider `CN(C)CCCC1(c2ccc(F)cc2)OCc2cc(C#N)ccc21` (centres unmarked) [Citalopram], for which, in data set [1] (setting [8]), the “in vivo CL_(L/hr/kg)_Human” value was 0.258 L/h/kg. This compound also gave a fp_Human with plasma protein [2] (human plasma free fraction) of 0.396. The compound further registered a fraction unbound at 5 h, 5 µM in the data set with plasma protein [2] (pooled human plasma) of 0.396. The “in vivo Vd_(L/kg)_Human” value in data set [3] (setting [9]) is 13.000 L/kg. The “in vivo MRT_(hr)_Human” value in data set [4] came out at 50.388 h. Moreover, in data set [5] (heparinized human whole blood), the blood plasma ratio at 30 min, 5 µM was 1.39.
